# Values quoted from earlier work as cited in US20190282591A1, “FINASTERIDE AND SILDENAFIL COMPOSITIONS AND APPLICATIONS” (BLUE GOOSE DRUGS INC., priority 2018, published 2019).
# Assays:
# [1] = active metabolite accounts for about one-half
# [2] = test system: dihydrotestosterone (DHT) levels
# 5β-reductase (AKR1D1) = target: T1, 5β-reductase (AKR1D1) (Homo sapiens, UniProt P51857); settings: compared with 5α-reductase type I
# T1 sequence (P51857 1-326): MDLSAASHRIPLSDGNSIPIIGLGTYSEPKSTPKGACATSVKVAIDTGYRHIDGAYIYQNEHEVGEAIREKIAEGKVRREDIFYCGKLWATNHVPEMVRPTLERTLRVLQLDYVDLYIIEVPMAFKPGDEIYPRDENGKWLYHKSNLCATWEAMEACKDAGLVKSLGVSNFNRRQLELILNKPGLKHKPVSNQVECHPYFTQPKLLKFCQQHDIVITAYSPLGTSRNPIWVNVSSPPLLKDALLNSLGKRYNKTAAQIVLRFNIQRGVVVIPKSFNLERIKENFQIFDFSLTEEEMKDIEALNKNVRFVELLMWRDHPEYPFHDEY
# [3] = target: T2, 5α-reductase type I isoenzyme (Homo sapiens, UniProt P18405); settings: 5α-reductase type I vs type II
# T2 sequence (P18405 1-259): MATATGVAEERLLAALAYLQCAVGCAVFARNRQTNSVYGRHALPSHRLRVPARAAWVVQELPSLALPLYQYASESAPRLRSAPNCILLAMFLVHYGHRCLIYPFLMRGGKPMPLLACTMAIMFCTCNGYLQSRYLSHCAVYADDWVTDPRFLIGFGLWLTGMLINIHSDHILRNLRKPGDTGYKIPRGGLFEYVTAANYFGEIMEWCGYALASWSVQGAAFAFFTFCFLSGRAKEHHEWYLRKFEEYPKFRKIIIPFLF
compound,measurement,setting,value
"CCCc1nn(C)c2c(=O)[nH]c(-c3cc(S(=O)(=O)N4CCN(C)CC4)ccc3OCC)nc12.O=C(O)CC(O)(CC(=O)O)C(=O)O [Sildenafil citrate, 5-[2-ethoxy-5-(4-methylpiperazin-1-yl)sulfonylphenyl]-1-methyl-3-propyl-4H-pyrazolo[4,3-d]pyrimidin-7-one; 2-hydroxypropane-1,2,3-tricarboxylic acid]",bioavailability after oral administration,[1],40%
C[C@]12C=CC(=O)N[C@@H]1CC[C@@H]1[C@@H]2CC[C@]2(C)[C@@H](C(=O)Nc3cc(C(F)(F)F)ccc3C(F)(F)F)CC[C@@H]12 [dutasteride],reduction of DHT levels in the entire body,[2]; entire body,more than 99%
"CC(C)(C)NC(=O)[C@H]1CC[C@H]2[C@@H]3CC[C@H]4NC(=O)C=C[C@]4(C)[C@H]3CC[C@]12C [finasteride, (5α,17β)-N-(1,1-dimethylethyl)-3-oxo-4-azaandrost-1-ene-17-carboxamide]",affinity for 5β-reductase relative to 5α-reductase,5β-reductase (AKR1D1),an order of magnitude less than 5α-reductase type I
same,less inhibitory potency for type I as compared to type II,[3],more than 100 fold
same,decrease in prostate DHT levels,"[2]; prostate, where type II isoenzyme predominates",85 to 90%
same,decrease in serum DHT levels,[2]; serum,65 to 70%
